These results are taken from patent US20230312605A1, “PYRROLO[2,1-F][1,2,4]TRIAZINES AND PREPARATION AND USES THEREOF” (BioSplice Therapeutics, Inc., priority 2021, published 2023).

Usually EC50 stands for the midpoint of the concentration-response curve.

This assay addresses recombinant DYRK1A kinase (Homo sapiens (Human), UniProt Q13627). As to the kind of experiment: DYRK1A kinase assay (Ser/Thr 18 peptide Z-lyte FRET assay). It counts as biochemical. Particulars: recombinant DYRK1A 0.25 µg/mL, ATP 15 µM, Ser/Thr peptide 18 4 µM, one hour at room temperature; table head prints EC50, method says IC50. The method, boiled down:
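Recombinant human DYRK1A (0.25 µg/mL) with 15 µM ATP and 4 µM Ser/Thr 18 peptide was incubated 1 h at room temperature with compound (11-point, 10 µM top), in duplicate. Z-lyte FRET read-out (coumarin/fluorescein emission ratio) was converted to percent phosphorylation; IC50 from non-linear regression.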

On to `Cc1nc2ncc(-c3ccn4nc(NC5CCN(CCC(F)(F)F)CC5)ncc34)cc2n1CC(F)F` [Compound 1883, 5-(1-(2,2-Difluoroethyl)-2-methyl-1H-imidazo[4,5-b]pyridin-6-yl)-N-(1-(3,3,3-trifluoropropyl)piperidin-4-yl)pyrrolo[2,1-f][1,2,4]triazin-2-amine], for which the EC50 was determined as 9 nM. Regarding `FC(F)(F)CCNc1ncc2c(-c3cnc4nccn4c3)ccn2n1` [Compound 220, 5-(Imidazo[1,2-a]pyrimidin-6-yl)-N-(3,3,3-trifluoropropyl)pyrrolo[2,1-f] [1,2,4]triazin-2-amine], the EC50 amounted to 14 nM. For the molecule `FC(F)(F)CNc1ncc2c(-c3cnc4nccn4c3)ccn2n1` [Compound 218, 5-(Imidazo[1,2-a]pyrimidin-6-yl)-N-(2,2,2-trifluoroethyl)pyrrolo[2,1-f] [1,2,4]triazin-2-amine], the EC50 came to 13 nM.

For the molecule `Cc1nc2c(F)cc(-c3ccn4nc(NCC(C)(C)F)ncc34)cc2n1C(C)C` [Compound 500], the EC50 amounted to 44 nM. With `CC(=O)N[C@]1(C)C[C@@H](Nc2ncc3c(-c4ccc5ncccc5c4)ccn3n2)C1` [Compound 1980] the figure was 1 nM; with `Cc1nc2ccc(-c3ccn4nc(N[C@H]5CC[C@@H](CN6CC(F)C6)CC5)ncc34)nc2n1CC(F)F` [Compound 1894, 5-(3-(2,2-Difluoroethyl)-2-methyl-3H-imidazo[4,5-b]pyridin-5-yl)-N-(cis-4-((3-fluoroazetidin-1-yl)methyl)cyclohexyl)pyrrolo [2,1-f] [1,2,4]triazin-2-amine], 11 nM. With `Cc1nc2ccc(-c3ccn4nc(NC5CCC6(CC5)CN(C)C6)ncc34)nc2n1CC(F)F` [Compound 1846, 5-(3-(2,2-Difluoroethyl)-2-methyl-3H-imidazo[4,5-b]pyridin-5-yl)-N-(2-methyl-2-azaspiro[3.5]nonan-7-yl)pyrrolo[2,1-f][1,2,4]triazin-2-amine] the figure was 4 nM.

On to `COCC(=O)N[C@]1(C)C[C@@H](Nc2ncc3c(-c4ccc5nccnc5c4)ccn3n2)C1` [Compound 1985, 2-Methoxy-N-(trans-1-methyl-3-((5-(quinoxalin-6-yl)pyrrolo[2,1-f][1,2,4]triazin-2-yl)amino)cyclobutyl)acetamide], for which the EC50 came out at 3 nM. With `O[C@H]1CC[C@@H](Nc2ncc3c(-c4cnc5ncccc5c4)ccn3n2)CC1` [Compound 1535, cis-4-((5-(1.8-Naphthyridin-3-yl)pyrrolo[2,1-f][1,2,4]triazin-2-yl)amino) cyclohexan-1-ol] the figure was 7 nM; with `FC(F)(F)C1(CNc2ncc3c(-c4cnc5nccn5c4)ccn3n2)CC1` [Compound 226, 5-(Imidazo[1,2-a]pyrimidin-6-yl)-N-((1-(trifluoromethyl)cyclopropyl)methyl)pyrrolo[2,1-f][1,2,4]triazin-2-amine], 11 nM. With `CN1CCC(Nc2ncc3c(-c4ccc5nccn5c4)ccn3n2)CC1` [Compound 66, 5-(Imidazo[1,2-a]pyridin-6-yl)-N-(1-methylpiperidin-4-yl)pyrrolo[2,1-f] [1,2,4]triazin-2-amine] the figure was 264 nM; with `CO[C@H]1CC[C@@H](Nc2ncc3c(-c4cnc5nc(C)n(CC(F)F)c5c4)ccn3n2)CC1` [Compound 685, 5-(1-(2,2-Difluoroethyl)-2-methyl-1H-imidazo[4,5-b]pyridin-6-yl)-N-(cis-4-methoxycyclohexyl)pyrrolo[2,1-f] [1,2,4]triazin-2-amine], 3 nM. As for `c1cn2cc(-c3ccn4nc(NCC5COC5)ncc34)ccc2n1` [Compound 20], the EC50 was found to be 67 nM. As for `COC[C@@H](C)Nc1ncc2c(-c3cnc4nccn4c3)ccn2n1` [Compound 223, (R)-5-(Imidazo[1,2-a]pyrimidin-6-yl)-N-(1-methoxypropan-2-yl)pyrrolo[2,1-f][1,2,4]triazin-2-amine], the figure is 101 nM; as for `C[C@]1(O)CC[C@H](Nc2ncc3c(-c4ccc5nnn(CC(F)F)c5c4)ccn3n2)CC1` [Compound 1890, trans-4-((5-(1-(2,2-Difluoroethyl)-1H-benzo[d][1,2,3]triazol-6-yl)pyrrolo [2,1-f][1,2,4]triazin-2-yl)amino)-1-methylcyclohexan-1-o1], 14 nM; as for `Cc1nc2ccc(-c3ccn4nc(N[C@H]5CC[C@@](C)(O)CC5)ncc34)nc2n1CC(=O)N(C)C` [Compound 1872, 2-(5-(2-((cis-4-Hydroxy-4-methylcyclohexyl)amino)pyrrolo[2,1-f][1,2,4]triazin-5-yl)-2-methyl-3H-imidazo[4,5-b]pyridin-3-yl)-N,N-dimethylacetamide], 498 nM. In the case of `COCCNc1ncc2c(-c3ccc4nccn4c3)ccn2n1` [Compound 9, 5-(Imidazo[1,2-a]pyridin-6-yl)-N-(2-methoxyethyl)pyrrolo[2,1-f][1,2,4] triazin-2-amine], the EC50 amounted to 81 nM. As for `Cc1nc2ccc(-c3ccn4nc(N[C@H]5CC[C@@H](OCCO)CC5)ncc34)nc2n1CC(F)F` [Compound 1839, 2-((cis-4-((5-(3-(2,2-difluoroethyl)-2-methyl-3H-imidazo[4,5-b]pyridin-5-yl)pyrrolo[2,1-f][1,2,4]triazin-2-yl)amino)cyclohexyl)oxy)ethan-1-ol], the figure is 4 nM; as for `Cc1nc2ccc(-c3ccn4nc(N[C@@H]5CN(C6COC6)C[C@@H]5F)ncc34)nc2n1CC(F)F` [Compound 1945, 5-(3-(2,2-Difluoroethyl)-2-methyl-3H-imidazo[4,5-b]pyridin-5-yl)-N-((3R,4S)-4-fluoro-1-(oxetan-3-yl)pyrrolidin-3-yl)pyrrolo [2,1-f][1,2,4]triazin-2-amine], 1 nM; as for `Cc1nc2ncc(-c3ccn4nc(N[C@H]5CC[C@@H](OC(F)(F)F)CC5)ncc34)nc2n1CC(F)F` [Compound 1970, 5-(1-(2,2-Difluoroethyl)-2-methyl-1H-imidazo[4,5-b]pyrazin-6-yl)-N-(cis-4-(trifluoromethoxy)cyclohexyl)pyrrolo[2,1-f][1,2,4]triazin-2-amine], 7 nM. Regarding `CCO[C@H]1C[C@@H](Nc2ncc3c(-c4cnc5ncccc5c4)ccn3n2)C1` [Compound 1520, N-(cis-3-Ethoxycyclobutyl)-5-(1,8-naphthyridin-3-yl)pyrrolo[2,1-f][1,2,4] triazin-2-amine], the EC50 amounted to 963 nM. With `c1cn2cc(-c3ccn4nc(NC5CCC5)ncc34)cnc2n1` [Compound 235, N-Cyclobutyl-5-(imidazo[1,2-a]pyrimidin-6-yl)pyrrolo[2,1-f][1,2,4]triazin-2-amine] the figure was 377 nM. Turning to `CC(=O)N1CC2(CCC(Nc3ncc4c(-c5ccc6nc(C)n(CC(F)F)c6n5)ccn4n3)CC2)C1` [Compound 1899, 1-(7-((5-(3-(2,2-difluoroethyl)-2-methyl-3H-imidazo[4,5-b]pyridin-5-yl)pyrrolo[2,1-f][1,2,4]triazin-2-yl)amino)-2-azaspiro[3.5]nonan-2-yl)ethan-1-one], the EC50 was 1 nM.

`CN1CCC(Nc2ncc3c(-c4cnc5ncccc5c4)ccn3n2)CC1` [Compound 1557, N-(1 -Methylpiperidin-4-yl)-5-(1,8-naphthyridin-3-yl)pyrrolo [2,1-f] [1,2,4] triazin-2-amine]: the EC50 came out at 18 nM.
